This is an account of results in patent US20190076406A1, “METHODS AND COMPOSITIONS FOR TREATING CONDITIONS ASSOCIATED WITH ANGIOGENESIS USING A VASCULAR ADHESION PROTEIN-1 (VAP-1) INHIBITOR” (MASSACHUSETTS EYE & EAR INFIRMARY, priority 2007, published 2019).

Test [1] relates to IL-1β-induced corneal lymphangiogenesis in BALB/c mice. Nature of the test: IL-1β-induced corneal lymphangiogenesis (LYVE-1 stain). Conditions: IL-1β pellet; i.p. administration; vs vehicle. It counts as in vivo, mouse. The method, then:
(§1) BALB/c mice were anesthetized by intrapcritoneal (i.p.) injection of pentobarbital sodium (60 mg/kg). Hydron pellets (0.3 μl) containing 30 ng mouse IL-1β (401-ML; R&D Systems) were prepared and implanted into the corneas. Pellets were positioned 1 mm from the corneal limbus. Implanted eyes were treated with Bacitracin ophthalmic ointment (E. Fougera & Co.) to prevent infection.
(§2) To block VAP-1, mice received daily i.p. injections of a specific VAP-1 inhibitor, Compound II (R-tech Ueno Ltd., Tokyo, Japan) as described above. A daily dose of 0.3 mg/kg was administered at day 0 and continued until the sixth day after implantation. Two, four and six days after implantation, digital images of the corneal vessels were obtained and recorded using OpenLab software version 2.2.5 (Improvision Inc.) with standardized illumination and contrast and were saved onto disks. The quantitative analysis of new vessel growth in the mouse corneas was performed using Scion Image software (version 4.0.2; Scion Corp.).
Eyes were enucleated and fixed with 4% paraformaldehyde for one hour at 4° C. For whole-mount preparation, the corneas were exposed by removing other portions of the eye (i.e. iris, sclera, retina, and conjunctiva). After washing with PBS, tissues were placed in methanol for 20 minutes. […]

Test [2] relates to IL-1β-induced corneal angiogenesis in BALB/c mice. Kind of test: IL-1β-induced corneal angiogenesis. It counts as in vivo, mouse. Conditions: day 6 after pellet implantation; 0.3 mg/kg daily i.p. The method, then: as §1, §2
A further test concerns ICAM-1. Nature of the test: ELISA of ICAM-1 in RPE-choroid complex after laser injury. The format is in vivo, rat. To be noted: 3 days after laser injury; 0.3 mg/kg daily i.p.; mean±SEM. How it is done: (§3) Brown-Norway rats were anesthetized with 0.2-0.3 ml of a 50:50 mixture of 100 mg/ml Ketamine and 20 mg/ml Xylazine. Pupils were dilated with 5.0% Phenylephrine and 0.8% Tropicamide. CNV was induced with a 532 nm laser (Oculight GLx, Iridex, Mountain View, Calif.). Six laser spots (150 mW, 100 μm, 100 msec) were placed in each eye using a slit-lamp delivery system and a cover glass as a contact lens. Production of a bubble at the time of laser confirmed the rupture of the Bruch's membrane.
To block VAP-1, a specific VAP-1 inhibitor, Compound II described above, was used (R-tech Ueno, Ltd., Tokyo, Japan). […]
The RPE-choroid complex was carefully isolated from eyes 3 days after photocoagulation and placed in 300 μl of lysis buffer supplemented with protease inhibitors and sonicated. The lysate was centrifuged at 15,000 rpm for 15 minutes at 4° C. and the levels of TNF-α, monocyte chemotactic protein (MCP)-1, and intercellular adhesion molecule (ICAM)-1 were determined with rat TNF-α (BD bioscience), MCP-1 (BD bioscience) and ICAM-1 (R&D Systems, Minneapolis, Minn.) enzyme-linked immunosorbent assay (ELISA) kits according to the manufacturers' protocols. Total protein concentration was determined using a Bio-Rad Protein Assay Kit (Bio-Rad Laboratories Hercules, Calif.) and dilutions of bovine serum albumin (Bio-Rad Laboratories) as standards.
For orientation: In an ELISA, binding on a coated surface is turned into a signal by an enzyme label.

Test [3] deals with laser-induced CNV in Brown-Norway rats. Nature of the test: Laser-induced CNV, lesion size in choroidal flatmounts. The format is in vivo, rat. To be noted: 0.3 mg/kg BW daily i.p., mean±SEM. The method, then: as §3
To block VAP-1, a specific VAP-1 inhibitor, Compound II described above, was used (R-tech Ueno, Ltd., Tokyo, Japan). After laser injury, the inhibitor (0.3 mg/kg BW) was administered to the animals by daily i.p. injections. As a control, some animals received the same regimen for the vehicle solution alone.
One week or two weeks after laser injury and treatment with VAP-1 inhibitor or vehicle, the size of CNV lesions was quantified using choroidal flat mounts. Briefly, rats were anesthetized and perfused through the left ventricle with 20 ml PBS followed by 20 ml of 5 mg/ml fluorescein labeled dextran (FITC-dextran; MW=2×106, SIGMA) in 1% gelatin. The eyes were enucleated and fixed in 4% paraformaldehyde for 3 hours. The anterior segment and retina were removed from the eyecup. […] The average size of the CNV lesions was then determined and used for the evaluation.

Test [4] concerns IL-1β-induced corneal angiogenesis in BALB/c mice. Nature of the test: Leukocyte infiltration in IL-1β-implanted cornea (immunostaining). It counts as in vivo, mouse. To be noted: 0.3 mg/kg daily i.p. The method, then: as §1, §2
Mice were sacrificed under deep anesthesia with pentobarbital sodium (60 mg/kg i.p.). The eyes were harvested, snap-frozen in optimal cutting temperature (OCT) compound (Sakura Finetechnical) and 10 μm sections were prepared, air-dried and fixed in cold acetone for 10 min. The sections were blocked with nonfat dried-milk (M7409; Sigma) for 10 minutes and stained with anti-CD11b mAb (1:100, 550282; BD Pharmingen), anti-Gr-1 mAb (1:100, 550282; BD Pharmingen) or anti-F4/80 mAb (1:100, MCA497G; Scrotec). After an overnight incubation, sections were washed and stained for 20 min. with secondary Abs, FITC-conjugated goat anti-rat (1:100, AP136F; Chemicon International).

As to `CC(=O)Nc1nc(CCc2ccc(NC(=N)NN)cc2)c(Cc2ccc(S(C)(=O)=O)cc2)s1` [Compound II], the “growth of lymphatic vessels in cornea” value in test [1] is recorded as “reduced growth of lymphatic vessels”. The “neovascular area relative to control mice (IL-1β alone or IL-1β+vehicle)” value in test [2] is recorded as “about half”. In addition, the “ICAM-1 protein level in RPE-choroid complex” value with ICAM-1 stood at 57 ± 2 ng/mg. Also, the CNV size in test [3] (7 days after laser injury, n=7) is on record as 14,536±2175 μm^2. In addition, the CNV size in test [3] (fourteen days after laser injury, n=10 eyes, not significant vs vehicle (p=0.5)) was 23,992±1437 μm^2. Also, in test [4] (3 days after pellet implantation), the “infiltration of CD11b(+) cells in cornea” value is listed as “effectively inhibited”. In test [4] (IL-1β-implanted cornea), the “number of F4/80(+) cells in cornea” value is reported as “less than in vehicle-treated cornea or untreated cornea” and the “number of Gr-1(+) cells in cornea” value is “less than in vehicle-treated cornea or untreated cornea”.
